Experimental data: ChEMBL document CHEMBL4145553, “Design, synthesis, and biological evaluation of novel amide and hydrazide based thioether analogs targeting Histone deacteylase (HDAC) enzymes” (Eur J Med Chem, 2018)

Tests used:
HCC 2998 [1] = test: Growth inhibition of human HCC2998 cells assessed as cell growth at 10^-8 M incubated for 48 hrs by sulforhodamine B assay relative to control; format: functional; details: HCC 2998, 48 h, read-out: Activity
UO-31 [2] = test: Growth inhibition of human UO31 cells assessed as cell growth at 10^-8 M incubated for 48 hrs by sulforhodamine B assay relative to control; format: functional; details: UO-31, 48 h, read-out: Activity
NCI-H23 [3] = test: Growth inhibition of human NCI-H23 cells assessed as cell growth at 10^-7 M incubated for 48 hrs by sulforhodamine B assay relative to control; format: functional; details: NCI-H23, 48 h, read-out: Activity
NCI-H322M = test: Growth inhibition of human NCI-H322M cells assessed as cell growth at 10^-7 M incubated for 48 hrs by sulforhodamine B assay relative to control; format: functional; details: read-out: Activity
SNB-19 [4] = test: Growth inhibition of human SNB19 cells assessed as cell growth at 10^-7 M incubated for 48 hrs by sulforhodamine B assay relative to control; format: functional; details: SNB-19, 48 h, read-out: Activity
SNB-75 = test: Growth inhibition of human SNB75 cells assessed as cell growth at 10^-7 M incubated for 48 hrs by sulforhodamine B assay relative to control; format: functional; details: SNB-75, 48 h, read-out: Activity
U-251 = test: Growth inhibition of human U251 cells assessed as cell growth at 10^-7 M incubated for 48 hrs by sulforhodamine B assay relative to control; format: functional; details: U-251, 48 h, read-out: Activity
Malme-3M = test: Growth inhibition of human MALME-3M cells assessed as cell growth at 10^-7 M incubated for 48 hrs by sulforhodamine B assay relative to control; format: functional; details: read-out: Activity
NCI/ADR-RES = test: Growth inhibition of human NCI/ADR-RES cells assessed as cell growth at 10^-7 M incubated for 48 hrs by sulforhodamine B assay relative to control; format: functional; details: read-out: Activity
SK-OV-3 = test: Growth inhibition of human SKOV3 cells assessed as cell growth at 10^-7 M incubated for 48 hrs by sulforhodamine B assay relative to control; format: functional; details: SK-OV-3, 48 h, read-out: Activity
ACHN = test: Growth inhibition of human ACHN cells assessed as cell growth at 10^-7 M incubated for 48 hrs by sulforhodamine B assay relative to control; format: functional; details: read-out: Activity
SNB-19 [5] = test: Growth inhibition of human SNB19 cells assessed as cell growth at 10^-6 M incubated for 48 hrs by sulforhodamine B assay relative to control; format: functional; details: SNB-19, 48 h, read-out: Activity
SN12C = test: Growth inhibition of human SN12C cells assessed as cell growth at 10^-6 M incubated for 48 hrs by sulforhodamine B assay relative to control; format: functional; details: read-out: Activity
UO-31 [6] = test: Growth inhibition of human UO31 cells assessed as cell growth at 10^-6 M incubated for 48 hrs by sulforhodamine B assay relative to control; format: functional; details: UO-31, 48 h, read-out: Activity
T47D = test: Growth inhibition of human T47D cells assessed as cell growth at 10^-6 M incubated for 48 hrs by sulforhodamine B assay relative to control; format: functional; details: read-out: Activity
HCT-15 = test: Growth inhibition of human HCT15 cells assessed as cell growth at 10^-5 M incubated for 48 hrs by sulforhodamine B assay relative to control; format: functional; details: HCT-15, 48 h, read-out: Activity
A549 = test: Growth inhibition of human A549/ATCC cells assessed as cell growth at 10^-4 M incubated for 48 hrs by sulforhodamine B assay relative to control; format: functional; details: A549, 48 h, read-out: Activity
SF-268 = test: Growth inhibition of human SF268 cells assessed as cell growth at 10^-4 M incubated for 48 hrs by sulforhodamine B assay relative to control; format: functional; details: SF-268, 48 h, read-out: Activity
UACC-62 = test: Growth inhibition of human UACC62 cells assessed as cell growth at 10^-4 M incubated for 48 hrs by sulforhodamine B assay relative to control; format: functional; details: UACC-62, 48 h, read-out: Activity
OVCAR-5 = test: Growth inhibition of human OVCAR5 cells assessed as cell growth at 10^-4 M incubated for 48 hrs by sulforhodamine B assay relative to control; format: functional; details: OVCAR-5, 48 h, read-out: Activity
UO-31 [7] = test: Growth inhibition of human UO31 cells assessed as cell growth at 10^-4 M incubated for 48 hrs by sulforhodamine B assay relative to control; format: functional; details: UO-31, 48 h, read-out: Activity
CCRF-CEM = test: Growth inhibition of human CCRF-CEM cells incubated for 48 hrs by sulforhodamine B assay; format: functional
NCI-H23 [8] = test: Growth inhibition of human NCI-H23 cells incubated for 48 hrs by sulforhodamine B assay; format: functional; details: NCI-H23, 48 h
NCI-H522 = test: Growth inhibition of human NCI-H522 cells incubated for 48 hrs by sulforhodamine B assay; format: functional; details: NCI-H522, 48 h
HCC 2998 [9] = test: Growth inhibition of human HCC2998 cells incubated for 48 hrs by sulforhodamine B assay; format: functional; details: HCC 2998, 48 h
UACC-257 = test: Growth inhibition of human UACC257 cells incubated for 48 hrs by sulforhodamine B assay; format: functional; details: UACC-257, 48 h
MDA-MB-231 = test: Growth inhibition of human MDA-MB-231 cells incubated for 48 hrs by sulforhodamine B assay; format: functional; details: MDA-MB-231, 48 h
MDA-MB-468 = test: Growth inhibition of human MDA-MB-468 cells incubated for 48 hrs by sulforhodamine B assay; format: functional; details: MDA-MB-468, 48 h
MDA-MB-435 = test: Induction of apoptosis in human MDA-MB-435 cells assessed as necrotic cells by propidium iodide/Annexin V staining based flow cytometry (reference value: 0.24%); format: functional
Histone deacetylase 1 = Histone deacetylase 1 (Homo sapiens, UniProt Q13547); test: Inhibition of human HDAC1 by ELISA
[10] = read-out: LC50 (the source's name)
[11] = read-out: pLC50 (the source's name) (converted)

Histone deacetylase 1, sequence (Q13547 whole entry): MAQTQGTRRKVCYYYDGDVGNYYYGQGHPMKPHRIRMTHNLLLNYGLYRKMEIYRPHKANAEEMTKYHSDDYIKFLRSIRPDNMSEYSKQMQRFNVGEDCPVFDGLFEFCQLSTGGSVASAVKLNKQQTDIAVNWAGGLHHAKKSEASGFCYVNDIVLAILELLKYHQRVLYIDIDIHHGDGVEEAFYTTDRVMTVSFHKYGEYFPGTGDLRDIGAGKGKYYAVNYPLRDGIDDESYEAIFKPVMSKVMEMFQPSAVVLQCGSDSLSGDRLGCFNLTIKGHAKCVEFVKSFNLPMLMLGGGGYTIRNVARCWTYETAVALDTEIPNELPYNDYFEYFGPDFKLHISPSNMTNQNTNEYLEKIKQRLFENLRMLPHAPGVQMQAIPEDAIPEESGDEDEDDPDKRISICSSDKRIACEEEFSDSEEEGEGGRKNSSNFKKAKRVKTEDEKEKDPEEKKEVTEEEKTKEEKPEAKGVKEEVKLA

## CCS/C(Nc1ccccc1)=C(\C#N)C(=O)N/N=C\c1ccc(Cl)cc1Cl
HCC 2998 [1]
  growth at 0.01 µM: 101%
UO-31 [2]
  growth at 0.01 µM: 94%
NCI-H23 [3]
  growth at 0.1 µM: 97%
NCI-H322M
  growth at 0.1 µM: 91%
SNB-19 [4]
  growth at 0.1 µM: 94%
SNB-75
  growth at 0.1 µM: 78%
U-251
  growth at 0.1 µM: 98%
Malme-3M
  growth at 0.1 µM: 89%
NCI/ADR-RES
  growth at 0.1 µM: 97%
SK-OV-3
  growth at 0.1 µM: 86%
ACHN
  growth at 0.1 µM: 98%
SNB-19 [5]
  growth at 1 µM: 86%
SN12C
  growth at 1 µM: 96%
UO-31 [6]
  growth at 1 µM: 86%
T47D
  growth at 1 µM: 89%
HCT-15
  growth at 10 µM: 19%
A549
  growth at 100 µM: 18%
SF-268
  growth at 100 µM: 27%
UACC-62
  growth at 100 µM: 12%
OVCAR-5
  growth at 100 µM: 38%
UO-31 [7]
  growth at 100 µM: 41%
CCRF-CEM; read-out: GI50
  GI50: 3.07 µM
CCRF-CEM; [10]
  CC50: > 100 µM
CCRF-CEM; read-out: TGI
  TGI: > 100 µM
CCRF-CEM; read-out: pGI50 (converted)
  GI50: 3.09 µM
CCRF-CEM; [11]
  CC50: > 100 µM
CCRF-CEM; read-out: pTGI
  TGI: > 100 µM
NCI-H23 [8]; read-out: GI50
  GI50: 6.47 µM
NCI-H23 [8]; read-out: LC50
  LC50: > 100 µM
NCI-H23 [8]; read-out: TGI
  TGI: > 100 µM
NCI-H23 [8]; read-out: pGI50 (converted)
  GI50: 6.46 µM
NCI-H23 [8]; read-out: pLC50 (converted)
  LC50: > 100 µM
NCI-H23 [8]; read-out: pTGI
  TGI: > 100 µM
NCI-H522; read-out: GI50
  GI50: 1.84 µM
NCI-H522; [10]
  CC50: > 100 µM
NCI-H522; read-out: pGI50 (converted)
  GI50: 1.82 µM
NCI-H522; [11]
  CC50: > 100 µM
HCC 2998 [9]; read-out: GI50
  GI50: 5.47 µM
HCC 2998 [9]; [10]
  CC50: > 100 µM
HCC 2998 [9]; read-out: TGI
  TGI: > 100 µM
HCC 2998 [9]; read-out: pGI50 (converted)
  GI50: 5.5 µM
HCC 2998 [9]; [11]
  CC50: > 100 µM
HCC 2998 [9]; read-out: pTGI
  TGI: > 100 µM
UACC-257; read-out: GI50
  GI50: 25.7 µM
UACC-257; [10]
  CC50: > 100 µM
UACC-257; read-out: TGI
  TGI: > 100 µM
UACC-257; read-out: pGI50 (converted)
  GI50: 25.7 µM
UACC-257; [11]
  CC50: > 100 µM
UACC-257; read-out: pTGI
  TGI: > 100 µM
MDA-MB-231; read-out: GI50
  GI50: 4.75 µM
MDA-MB-231; [10]
  CC50: > 100 µM
MDA-MB-231; read-out: TGI
  TGI: > 100 µM
MDA-MB-231; read-out: pGI50 (converted)
  GI50: 4.79 µM
MDA-MB-231; [11]
  CC50: > 100 µM
MDA-MB-231; read-out: pTGI (converted)
  TGI: > 100 µM
MDA-MB-468; read-out: GI50
  GI50: 2.6 µM
MDA-MB-468; [10]
  CC50: > 100 µM
MDA-MB-468; read-out: TGI
  TGI: 9.19 µM
MDA-MB-468; read-out: pGI50 (converted)
  GI50: 2.63 µM
MDA-MB-468; [11]
  CC50: > 100 µM
MDA-MB-468; read-out: pTGI (converted)
  TGI: 9.12 µM
MDA-MB-435
  Activity: 0.89%
Histone deacetylase 1
  IC50: 0.07 µM
